Columns and labels:
Assay type in all cases: cell-based
[1] = test system: Marburgvirus (Angola strain) (pseudotype VSV); assay: microbe, parasite or virus in culture; details: Orthomarburgvirus, read-out: C values
[2] = test system: bundibugyo Ebola virus (pseudotype VSV); assay: microbe, parasite or virus in culture; details: read-out: C values
[3] = test system: pseudotype VSV (expressing GFP) having the surface glycoprotein of Ebola virus (zaire sp.); assay: organism not typed; details: for IC50: Vero C1008; for activity at 0.02 µM / activity at 0.078 µM / activity at 0.312 µM / activity at 0.625 µM / activity at 1.25 µM / activity at 2.5 µM / activity at 5 µM / activity at 0.005 µM: Vesicular stomatitis virus, Vero C1008, 18 h, read-out: Viral Infection rate (%); for activity at 0.02 µM: Compound Conc. 0.020 μM; for activity at 0.078 µM: Compound Conc. 0.078 μM; for activity at 0.312 µM: Compound Conc. 0.312 μM; for activity at 0.625 µM: Compound Conc. 0.625 μM; for activity at 1.25 µM: Compound Conc. 1.25 μM; for activity at 2.5 µM: Compound Conc. 2.5 μM; for activity at 0.005 µM: Compound Conc. 0.005 μM
[4] = test system: reston Ebola virus (pseudotype VSV); assay: microbe, parasite or virus in culture; details: Reston ebolavirus, read-out: C values
[5] = test system: tai forest Ebola virus (pseudotype VSV); assay: microbe, parasite or virus in culture; details: read-out: C values
[6] = test system: sudan Ebola virus (pseudotype VSV); assay: microbe, parasite or virus in culture; details: Sudan ebolavirus, read-out: C values

| SMILES | IC50 [1] [nM] | IC50 [2] [nM] | IC50 [3] [nM] | activity at 0.02 µM [3] [%] | activity at 0.078 µM [3] [%] | activity at 0.312 µM [3] [%] | activity at 0.625 µM [3] [%] | activity at 1.25 µM [3] [%] | activity at 2.5 µM [3] [%] | activity at 5 µM ([3]; Compound Conc. 5 μM) [%] | IC50 [4] [nM] | IC50 [5] [nM] | IC50 [6] [nM] | activity at 0.005 µM [3] [%] | Viral Infection rate (%) ([3]; Compound Conc. 5 μM) |
| --- | --- | --- | --- | --- | --- | --- | --- | --- | --- | --- | --- | --- | --- | --- | --- |
| CCN(CC)CCCN(c1ccc(OC)cc1-c1ccccc1)S(=O)(=O)c1ccccc1 [4-17, N-[3-(diethylamino)propyl]-N-(4-methoxy-2-phenyl-phenyl)benzensulfonamide] | 1000 to 5000 | ~50 | ~50 | 72.6 | 34.6 | 1.91 | 2.05 | 0.2 | 0.81 | 0.22 | ~1000 | 500 to 1000 | ~300 |  |  |
| COc1ccc(N(CC2CCN(C)CC2)S(=O)(=O)c2ccccc2)c(-c2ccccc2)c1 [4-20] | 1000 to 5000 | ~50 | ~50 | 78.8 | 43.7 | 4.58 | 2.58 | 0.23 | 0.09 | 0.17 | ~1000 | 500 to 1000 | ~300 | 91.8 |  |
| CCN1CCC(CN(c2ccc(OC)cc2-c2ccccc2)S(=O)(=O)c2ccccc2)CC1 [4-21] | 1000 to 5000 | ~50 | ~50 | 64.6 | 28.5 | 0.75 | 0.22 | 0.18 | 0.12 | 0.17 | ~1000 | 500 to 1000 | ~300 |  |  |
| COc1ccc(N(CCCN(C)C)S(=O)(=O)c2ccccc2)c(-c2ccccc2)c1 [4-27, N-[3-(dimethylamimo)propyl]-N-(4-methoxy-2-phenyl-phenyl)benzensulfonamide] | 1000 to 5000 | ~50 | ~50 | 81.5 | 45 | 3.49 | 0.4 | 0.18 | 0.14 | 0.2 | ~1000 | 500 to 1000 | ~300 |  |  |
| CCOc1ccc(N(CC2CCN(CC)CC2)S(=O)(=O)c2ccccc2)c(-c2ccccc2)c1 [4-39] |  |  |  | 103 |  |  |  | 116 |  |  |  |  |  | 98.4 |  |
| COc1ccc(N(CC2CCCN(C)C2)S(=O)(=O)c2ccccc2)c(-c2ccccc2)c1 (stereo not drawn) [4-42] |  |  |  | 101 | 102 | 93 | 28.4 |  | 0.25 | ~0 |  |  |  | 95.6 | 0.00 |
| CCN1CCC(CN(c2ccc(C(C)C)cc2-c2ccccc2)S(=O)(=O)c2ccccc2)CC1 [4-45, N-(4-isopropyl-2-phenyl-phenyl)-N-(1-ethyl-4-piperidylmethyl)benzensulfonamide] |  |  |  | 101 | 104 | 103 |  | 69.5 |  | 0.23 |  |  |  | 90.8 |  |
| CCN1CCC(CN(c2ccc(C(C)(C)C)cc2-c2ccccc2)S(=O)(=O)c2ccccc2)CC1 [4-48, N-(4-t-butyl-2-phenyl-phenyl)-N-(1-ethyl-4-piperidylmethyl)benzensulfonamide] |  |  |  | 104 | 96.3 |  |  |  |  | 47.6 |  |  |  | 97.1 |  |
| CCN1CCC(CN(c2ccc(OC)cc2-c2ccc(F)cc2)S(=O)(=O)c2ccccc2)CC1 [4-51, N-[2-(4-fluorophenyl)-4-methoxy-phenyl)-N-(1-ethyl-4-piperidylmethyl)benzensulfonamide] |  |  |  | 84.5 | 45 | 11.9 |  | 0.51 |  | 0 |  |  |  | 92.2 |  |
| CCN1CCC(CN(c2ccc(OC)cc2-c2cccc(F)c2)S(=O)(=O)c2ccccc2)CC1 [4-54, N-[2-(3-fluorophenyl)-4-methoxy-phenyl)-N-(1-ethyl-4-piperidylmethyl)benzensulfonamide] |  |  |  | 90 | 74.5 | 28.6 |  | 0.1 |  | 0 |  |  |  |  |  |
| CCN1CCC(CN(c2ccc(OC)cc2-c2ccccc2F)S(=O)(=O)c2ccccc2)CC1 [4-57, N-[2-(2-fluorophenyl)-4-methoxy-phenyl)-N-(1-ethyl-4-piperidylmethyl)benzensulfonamide] |  |  |  |  | 93.3 | 58.2 |  | 1 |  | 0.83 |  |  |  | 101 |  |
| CCN1CCC(CN(c2ccc(OC)cc2-c2ccccc2)S(=O)(=O)c2cccc(F)c2)CC1 [4-63, 3-fluoro-N-(4-methoxy-2-phenyl-phenyl)-N-(1-ethyl-4-piperidylmethyl)benzensulfonamide] |  |  |  | 96.2 | 78.2 | 34.3 |  | 0.81 |  | 0 |  |  |  | 96.7 |  |
| CCN(CC)CCCN(c1ccc(OC)cc1-c1ccc(F)cc1)S(=O)(=O)c1ccccc1 [4-68, N-[3-(diethylamino)propyl]-N-[2-(4-fluorophenyl)-4-methoxy-phenyl)benzensulfonamide] |  |  |  |  |  | 52.8 |  |  |  | 0.25 |  |  |  | 99.3 |  |

Reference: patent US20210107871A1 (priority 2017, published 2021)
